From patent US8114850B2, “Antiproliferative activity of G-rich oligonucleotides and method of using same to bind to nucleolin” (Advanced Cancer Therapeutics, LLC, priority 1999, dated 2012)

Columns and labels:
[1] = test system: hematopoietic stem cell line (ATCC 2037); experiment: MTT dose dependence, non-malignant hematopoietic stem cell line; assay type: cell-based, mouse; conditions: FIG. 3
Source text: (§1) FIG. 3: MTT assays showing the dose dependence of growth modulation by GR029A for leukemic cell lines, U937 and […], and a non-malignant mouse hematopoietic stem cell line (ATCC 2037).

HS27 cells = experiment: MTT cell growth assay, non-malignant HS27 cells; assay type: cell-based; conditions: compared to most malignant cell lines; FIG. 2
Procedure: (§2) Cells were plated at low density ([…] cells per well, depending on cell line) in the appropriate serum-supplemented medium in 96-well plates (one plate per MTT assay time point) and grown under standard conditions of cell culture. The following day (day 1) oligonucleotide, or water as control, was added to the culture medium to give a final concentration of 15 uM. Further oligonucleotide, equivalent to half the initial dose, was added to the culture medium on days two, three and four.
(§3) Cells were assayed using the MTT assay (Morgan (1998) Methods. Mol. Biol. 79, 179-183) on days one, three, five, seven and nine after plating. The culture medium was not changed throughout the duration of the experiment (which was the time required for untreated cells to grow to confluence). Experiments were performed in triplicate and bars represent the standard error of the data.

[2] = test system: MDA-MB-231 breast cancer cells; experiment: MTT cell growth assay, MDA-MB-231 cells; assay type: cell-based, human; conditions: for growth of MDA-MB-231 cells (MTT): 15 uM on day 1, half the initial dose on days 2-4, 3′-propylamino oligonucleotides, vs water control, FIG. 1B
Procedure: Cells were plated at low density ([…] cells per well, depending on cell line) in the appropriate serum-supplemented medium in 96-well plates (one plate per MTT assay time point) and grown under standard conditions of cell culture. The following day (day 1) oligonucleotide, or water as control, was added to the culture medium to give a final concentration of 15 uM. Further oligonucleotide, equivalent to half the initial dose, was added to the culture medium on days two, three and four. Cells were assayed using the MTT assay (Morgan (1998) Methods. Mol. Biol. 79, 179-183) on days one, three, five, seven and nine after plating. The culture medium was not changed throughout the duration of the experiment (which was the time required for untreated cells to grow to confluence). Experiments were performed in triplicate and bars represent the standard error of the data. For the experiment shown in FIG. 7A, MDA-MB-231 breast cancer cells (5×10^2 cells per well) were plated in a 96-well plate. After twenty-four hours, a single dose of oligonucleotide, or equal volume of PBS as a control, was added to the culture medium to a final concentration of 10 uM. Viable cells were assessed seven days after plating using the MTT assay. For the experiment using 3′-unmodified oligonucleotides (FIG. 7D), serum-supplemented medium was replaced by serum-free medium containing oligonucleotide (or serum-free medium alone in control wells). After incubation at 37° C. for four hours, fetal calf serum (Life Technologies, Inc.) was added to the medium to give 10% v/v.

U937 cells = experiment: MTT dose dependence, leukemic cell line U937; assay type: cell-based; conditions: FIG. 3
Source text: as §1

[3] = test system: MDA-MB-231 breast cancer cells; experiment: Chemotherapeutic agent and GRO combination, MTT assay; assay type: cell-based, human; conditions: cisplatin 0.5 µg/ml, GR029A 8 uM added after two hours, MTT after six days
Procedure: Cisplatin (in 1% DMSO solution to give a final concentration of […]) was added to the medium of MDA-MB-231 breast cancer cells growing in culture. After two hours, GR029A (in PBS solution to give a final concentration of 8 uM) was added to the medium. After six days, the relative number of viable cells was determined using the MTT assay. Cells treated with GR029A alone received an appropriate volume of 1% DMSO in place of cisplatin. Cells treated with cisplatin alone received an appropriate volume of PBS in place of GR029A.

K562 cells = experiment: MTT dose dependence, leukemic cell line K562; assay type: cell-based; conditions: FIG. 3
Source text: as §1

HeLa cells = experiment: MTT cell growth assay, HeLa cells; assay type: cell-based, human; conditions: 15 uM on day 1, half the initial dose on days 2-4; 3′-propylamino oligonucleotides; vs water control; FIG. 1C
Procedure: as §2, §3

[4] = biological target: T1, TEL-binding protein (GRO-binding protein/nucleolin, MDA-MB-231 nuclear extracts) (Homo sapiens, UniProt P19338); experiment: Competitive EMSA, labeled TEL and MDA-MB-231 nuclear extracts; conditions: 10 nM unlabeled oligonucleotide; labeled TEL, MDA-MB-231 nuclear extracts
T1 construct: Nuclear and cytoplasmic extracts from MDA-MB-231 cells were prepared using the protocol described in F. M. Ausubel et al; endogenous in cells; host or cells: MDA-MB-231 nuclear extract, prepared in house
T1 sequence (P19338 whole entry): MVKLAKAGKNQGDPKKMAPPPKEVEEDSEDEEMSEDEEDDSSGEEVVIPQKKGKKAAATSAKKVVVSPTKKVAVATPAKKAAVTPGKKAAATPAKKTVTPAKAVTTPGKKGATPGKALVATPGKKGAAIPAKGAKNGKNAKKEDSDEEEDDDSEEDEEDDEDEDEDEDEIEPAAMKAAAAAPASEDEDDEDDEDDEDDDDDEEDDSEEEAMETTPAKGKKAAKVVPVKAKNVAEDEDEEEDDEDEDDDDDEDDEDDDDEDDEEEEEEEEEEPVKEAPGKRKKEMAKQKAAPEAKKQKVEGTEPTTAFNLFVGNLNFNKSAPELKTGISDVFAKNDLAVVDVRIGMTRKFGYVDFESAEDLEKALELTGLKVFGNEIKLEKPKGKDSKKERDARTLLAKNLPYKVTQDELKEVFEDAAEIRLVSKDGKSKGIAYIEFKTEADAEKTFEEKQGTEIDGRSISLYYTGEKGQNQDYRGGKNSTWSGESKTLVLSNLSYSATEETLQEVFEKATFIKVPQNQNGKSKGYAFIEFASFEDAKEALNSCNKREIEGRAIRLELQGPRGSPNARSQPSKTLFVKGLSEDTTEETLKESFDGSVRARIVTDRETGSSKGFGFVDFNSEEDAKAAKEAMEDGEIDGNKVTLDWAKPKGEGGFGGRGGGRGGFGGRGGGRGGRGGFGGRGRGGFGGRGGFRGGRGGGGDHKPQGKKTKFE

Substance | growth modulatory effect, non-malignant hematopoietic stem cell line (ATCC 2037) [1] | growth modulatory effect on non-malignant HS27 cells (HS27 cells) | growth of MDA-MB-231 cells (MTT) [2] | antiproliferative activity, MDA-MB-231 ([2]; single 10 uM dose, FIG. 7A) | antiproliferative effect, U937 leukemia cells (U937 cells) | growth modulation [3] [%] | antiproliferative effect, K562 leukemia cells (K562 cells) | growth of HeLa cells (MTT) (HeLa cells) | competition for protein binding in competitive EMSA [4]
5′-TTTGGTGGTGGTGG TTGTGGTGGTGGTGG-3′ [GR029A] | lesser growth modulatory effect | lesser growth modulatory effect | modulated proliferation | active | antiproliferative effects | 5 | antiproliferative effects | modulated proliferation | competed strongly
5′-GTTGTTTGG GGTGGT-3′ (GTTGTTTGGGGTGGT; DNA, backbone not given here; further chemistry not fully specified) [GRO15A] |  |  | modulated proliferation |  |  |  |  | modulated proliferation | 
